Test results from patent US10329302B2, “Bicyclic-fused heteroaryl or aryl compounds” (Pfizer Inc., priority 2014, dated 2019).

biological target: human IRAK4 kinase domain (aa 154-460) (Homo sapiens (Human), UniProt Q9NWZ3); assay: IRAK4 Enzymatic DELFIA Assay, Protocol B; format: biochemical; details: human IRAK4 kinase domain (aa 154-460), 0.6 mM ATP (KM); read-out: IRAK4 DELFIA Protocol B IC50
Source text: IRAK4 Enzymatic DELFIA Assay, Protocol B.

Chain of human IRAK4 kinase domain (aa 154-460) (Q9NWZ3 154-460): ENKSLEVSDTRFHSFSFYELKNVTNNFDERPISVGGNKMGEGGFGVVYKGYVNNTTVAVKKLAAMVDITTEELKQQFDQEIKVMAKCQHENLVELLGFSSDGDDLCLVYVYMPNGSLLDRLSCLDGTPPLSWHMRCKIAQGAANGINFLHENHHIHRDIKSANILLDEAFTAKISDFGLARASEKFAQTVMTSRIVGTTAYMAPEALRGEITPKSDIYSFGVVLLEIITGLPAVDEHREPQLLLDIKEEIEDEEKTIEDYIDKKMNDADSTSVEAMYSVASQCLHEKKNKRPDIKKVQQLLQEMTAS

**Q.** For `CC(C)Oc1cc2c(OC3CCC34CCNCC4)ccnc2cc1C(N)=O` (stereo not drawn) [Example 52, 4-(7-azaspiro[3.5]non-1-yloxy)-6-(propan-2-yloxy)quinoline-7-carboxamide], which IC50 is on record?
**A.** 4240 nM

**Q.** For `CC(C)Oc1cc2c(OC[C@H]3COCCN3C(=O)CC#N)nccc2cc1C(N)=O` [Example 64, 1-{[(3R)-4-(cyanoacetyl)morpholin-3-yl]methoxy}-7-(propan-2-yloxy)isoquinoline-6-carboxamide], which IC50 is on record?
**A.** 641 nM

**Q.** For `CC(C)Oc1cc2c(OCC3CCNCC3)ccnc2cc1C(N)=O` [Example 4, 4-(piperidin-4-ylmethoxy)-6-(propan-2-yloxy)quinoline-7-carboxamide], which IC50 is on record?
**A.** 913 nM

**Q.** `CC(C)Oc1cc2c(OC3CC[C@@H]4CNC[C@H]34)nccc2cc1C(N)=O` (stereo partly drawn) [Example 20, 1-[(3aR,6aS)-octahydrocyclopenta[c]pyrrol-4-yloxy]-7-(propan-2-yloxy)isoquinoline-6-carboxamide] was tested. Which IC50 did it give?
**A.** 102 nM

**Q.** For `CC(C)Oc1cc2c(OC[C@@]34C[C@@H]3CN(C(=O)CC#N)C4)ccnc2cc1C(N)=O` [Example 90, 4-{[(1S,5S)-3-(cyanoacetyl)-3-azabicyclo[3.1.0]hex-1-yl]methoxy}-6-(propan-2-yloxy)quinoline-7-carboxamide], which IC50 is on record?
**A.** 438 nM

**Q.** How did the IC50 turn out when `CC(C)Oc1cc2c(OC[C@@H]3C[C@](O)(CC(F)(F)F)C(=O)N3)nccc2cc1C(N)=O` [Example 184, 1-{[(2S,4S)-4-hydroxy-5-oxo-4-(2,2,2-trifluoroethyl)pyrrolidin-2-yl]methoxy}-7-(propan-2-yloxy)isoquinoline-6-carboxamide] was run?
**A.** 60 nM

**Q.** With `CC(C)Oc1cc2c(OCC3COC3)ccnc2cc1C(N)=O` [Example 6, 4-(oxetan-3-ylmethoxy)-6-(propan-2-yloxy)quinoline-7-carboxamide] as the compound, how does the IC50 read?
**A.** 618 nM

**Q.** With `CC(C)Oc1cc2c(OC[C@]34CNCC[C@H]3C4)nccc2cc1C(N)=O` [Example 162, 1-[(1S,6R)-3-azabicyclo[4.1.0]hept-1-ylmethoxy]-7-(propan-2-yloxy)isoquinoline-6-carboxamide] as the compound, how does the IC50 read?
**A.** 35 nM

**Q.** For `CC(C)Oc1cc2c(O[C@H]3C[C@@H]4C[C@H]3CN(C(=O)CC#N)C4)nccc2cc1C(N)=O` [Example 81, 1-{[(1S,5S,6S)-3-(cyanoacetyl)-3-azabicyclo[3.2.1]oct-6-yl]oxy}-7-(propan-2-yloxy)isoquinoline-6-carboxamide], which IC50 is on record?
**A.** 479 nM

**Q.** Which IC50 does the source give for `CC(C)Oc1cc2c(OCC3CCCN3)nccc2cc1C(N)=O` (stereo not drawn) [Example 159, 7-(propan-2-yloxy)-1-(pyrrolidin-2-ylmethoxy)isoquinoline-6-carboxamide] here?
**A.** 3380 nM

**Q.** How did the IC50 turn out when `CC(C)Oc1cc2c(OC[C@@H]3COCCN3C(=O)CC#N)nccc2cc1C(N)=O` [Example 83, 1-{[(3S)-4-(cyanoacetyl)morpholin-3-yl]methoxy}-7-(propan-2-yloxy)isoquinoline-6-carboxamide] was run?
**A.** 175 nM

**Q.** With `CC(C)Oc1cc2c(OCC3(C)CCC3)ccnc2cc1C(N)=O` [Example 13, 4-[(1-methylcyclobutyl)methoxy]-6-(propan-2-yloxy)quinoline-7-carboxamide] as the compound, how does the IC50 read?
**A.** 383 nM

**Q.** `CC(C)Oc1cc2c(OC[C@H]3NC(=O)[C@@H]4OC(C)(C)O[C@H]34)nccc2cc1C(N)=O` [Example 167, 1-{[(3aR,4R,6aR)-2,2-dimethyl-6-oxotetrahydro-3aH-[1,3]dioxolo[4,5-c]pyrrol-4-yl]methoxy}-7-(propan-2-yloxy)isoquinoline-6-carboxamide] was tested. Which IC50 did it give?
**A.** 19 nM

**Q.** How did the IC50 turn out when `CC(C)Oc1cc2c(OC[C@@]34C[C@@H]3CN(C(=O)CC#N)C4)nccc2cc1C(N)=O` [Example 77, 1-{[(1S,5S)-3-(cyanoacetyl)-3-azabicyclo[3.1.0]hex-1-yl]methoxy}-7-(propan-2-yloxy)isoquinoline-6-carboxamide] was run?
**A.** 468 nM

**Q.** With `CC(C)Oc1cc2c(OC[C@H]3CNC(=O)O3)ccnc2cc1C(N)=O` [Example 57, 4-{[(5R)-2-oxo-1,3-oxazolidin-5-yl]methoxy}-6-(propan-2-yloxy)quinoline-7-carboxamide] as the compound, how does the IC50 read?
**A.** 5.8 nM
